PubChem BioAssay (NCI)
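Method: 48-hour compound exposure of cells in 96-well plates, five concentrations, linear interpolation of endpoints. GI50: concentration for 50% inhibition of growth. Definition used: TGI = concentration required for complete inhibition of growth.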

Key:
Assay in all cases: NCI tumour cell line growth inhibition, 48 h
786-0 renal = tested on: 786-0 renal
A498 renal = tested on: A498 renal
A549 NSCLC = tested on: A549 NSCLC
ACHN renal = tested on: ACHN renal
BT-549 breast = tested on: BT-549 breast
CCRF-CEM leukemia = tested on: CCRF-CEM leukemia
COLO 205 colon = tested on: COLO 205 colon
DU-145 prostate = tested on: DU-145 prostate
EKVX NSCLC = tested on: EKVX NSCLC
HCC-2998 colon = tested on: HCC-2998 colon
HCT-116 colon = tested on: HCT-116 colon
HCT-15 colon = tested on: HCT-15 colon
HL-60(TB) leukemia = tested on: HL-60(TB) leukemia
HOP-62 NSCLC = tested on: HOP-62 NSCLC
HOP-92 NSCLC = tested on: HOP-92 NSCLC
HS 578T breast = tested on: HS 578T breast
HT29 colon = tested on: HT29 colon
IGROV1 ovarian = tested on: IGROV1 ovarian
K-562 leukemia = tested on: K-562 leukemia
KM12 colon = tested on: KM12 colon
LOX IMVI melanoma = tested on: LOX IMVI melanoma
M14 melanoma = tested on: M14 melanoma
MALME-3M melanoma = tested on: MALME-3M melanoma
MCF7 breast = tested on: MCF7 breast
MDA-MB-231 breast = tested on: MDA-MB-231 breast
MDA-MB-435 = tested on: MDA-MB-435
MOLT-4 leukemia = tested on: MOLT-4 leukemia
NCI-H226 lung = tested on: NCI-H226 lung
NCI-H23 lung = tested on: NCI-H23 lung
NCI-H460 lung = tested on: NCI-H460 lung
NCI-H522 lung = tested on: NCI-H522 lung
NCI/ADR-RES ovarian = tested on: NCI/ADR-RES ovarian
OVCAR-3 ovarian = tested on: OVCAR-3 ovarian
OVCAR-4 ovarian = tested on: OVCAR-4 ovarian
OVCAR-5 ovarian = tested on: OVCAR-5 ovarian
OVCAR-8 ovarian = tested on: OVCAR-8 ovarian
PC-3 prostate = tested on: PC-3 prostate
RPMI-8226 leukemia = tested on: RPMI-8226 leukemia
RXF 393 renal = tested on: RXF 393 renal
SF-268 CNS = tested on: SF-268 CNS
SF-295 CNS = tested on: SF-295 CNS
SF-539 CNS = tested on: SF-539 CNS
SK-MEL-2 melanoma = tested on: SK-MEL-2 melanoma
SK-MEL-28 melanoma = tested on: SK-MEL-28 melanoma
SK-MEL-5 melanoma = tested on: SK-MEL-5 melanoma
SK-OV-3 ovarian = tested on: SK-OV-3 ovarian
SN12C renal = tested on: SN12C renal
SNB-19 CNS = tested on: SNB-19 CNS
SNB-75 CNS = tested on: SNB-75 CNS
SR leukemia = tested on: SR leukemia
SW-620 colon = tested on: SW-620 colon
T-47D breast = tested on: T-47D breast
TK-10 renal = tested on: TK-10 renal
U251 CNS = tested on: U251 CNS
UACC-257 melanoma = tested on: UACC-257 melanoma
UACC-62 melanoma = tested on: UACC-62 melanoma
UO-31 renal = tested on: UO-31 renal

Work on `COCC1(CO)C(=O)C2CCN1CC2` (centres undefined) yielded a GI50 (786-0 renal) of 17.4 µM, a TGI (786-0 renal) of 35.5 µM and a GI50 (A498 renal) of 23 µM. The TGI (A498 renal) was 63.9 µM, the GI50 (A549 NSCLC) was > 79 µM and the TGI (A549 NSCLC) was > 100 µM. For the same compound, the GI50 (ACHN renal) was 14.5 µM, the TGI (ACHN renal) was 28.7 µM and the GI50 (BT-549 breast) was 15.6 µM. The TGI (BT-549 breast) was 29.5 µM, the GI50 (CCRF-CEM leukemia) was 10.8 µM and the TGI (CCRF-CEM leukemia) was 37.1 µM. For the same compound, the GI50 (COLO 205 colon) was 16.8 µM, the TGI (COLO 205 colon) was 35.8 µM and the GI50 (DU-145 prostate) was 17.7 µM. It also gave a TGI (DU-145 prostate) of 32.3 µM, a GI50 (EKVX NSCLC) of 18.1 µM and a TGI (EKVX NSCLC) of 43.4 µM. For the same compound, the GI50 (HCC-2998 colon) was > 100 µM, the TGI (HCC-2998 colon) was > 100 µM and the GI50 (HCT-116 colon) was 14.3 µM. It also gave a TGI (HCT-116 colon) of 27.9 µM, a GI50 (HCT-15 colon) of 15.8 µM and a TGI (HCT-15 colon) of 32.7 µM. The GI50 (HL-60(TB) leukemia) was 18.9 µM, the TGI (HL-60(TB) leukemia) was 45.2 µM and the GI50 (HOP-62 NSCLC) was > 100 µM. For the same compound, the TGI (HOP-62 NSCLC) was > 100 µM, the GI50 (HOP-92 NSCLC) was 14.8 µM and the TGI (HOP-92 NSCLC) was 30 µM. For the same compound, the GI50 (HS 578T breast) was > 67.5 µM, the TGI (HS 578T breast) was > 100 µM and the GI50 (HT29 colon) was 28.1 µM. For the same compound, the TGI (HT29 colon) was > 63.9 µM, the GI50 (IGROV1 ovarian) was 18.4 µM and the TGI (IGROV1 ovarian) was 40.6 µM. The GI50 (K-562 leukemia) was 19.9 µM, the TGI (K-562 leukemia) was 58.5 µM and the GI50 (KM12 colon) was > 100 µM. For the same compound, the TGI (KM12 colon) was > 100 µM, the GI50 (LOX IMVI melanoma) was 18.2 µM and the TGI (LOX IMVI melanoma) was 37.2 µM. It also gave a GI50 (M14 melanoma) of 15.4 µM, a TGI (M14 melanoma) of 31.6 µM and a GI50 (MALME-3M melanoma) of 12.6 µM. It also gave a TGI (MALME-3M melanoma) of 28.3 µM, a GI50 (MCF7 breast) of 19.1 µM and a TGI (MCF7 breast) of 52.6 µM. For the same compound, the GI50 (MDA-MB-231 breast) was 17.2 µM, the TGI (MDA-MB-231 breast) was 32 µM and the GI50 (MDA-MB-435) was 17.1 µM. The TGI (MDA-MB-435) was 32.8 µM, the GI50 (MOLT-4 leukemia) was 19.4 µM and the TGI (MOLT-4 leukemia) was 51.4 µM. For the same compound, the GI50 (NCI-H226 lung) was > 47.5 µM, the TGI (NCI-H226 lung) was > 71.9 µM and the GI50 (NCI-H23 lung) was 19.7 µM. For the same compound, the TGI (NCI-H23 lung) was 46 µM, the GI50 (NCI-H460 lung) was > 59 µM and the TGI (NCI-H460 lung) was > 100 µM. The GI50 (NCI-H522 lung) was 4.28 µM, the TGI (NCI-H522 lung) was 11.7 µM and the GI50 (NCI/ADR-RES ovarian) was 25.6 µM. For the same compound, the TGI (NCI/ADR-RES ovarian) was > 78.6 µM, the GI50 (OVCAR-3 ovarian) was 14.2 µM and the TGI (OVCAR-3 ovarian) was 29.4 µM. The GI50 (OVCAR-4 ovarian) was 16.9 µM, the TGI (OVCAR-4 ovarian) was 40.4 µM and the GI50 (OVCAR-5 ovarian) was 26.2 µM. For the same compound, the TGI (OVCAR-5 ovarian) was > 55.7 µM, the GI50 (OVCAR-8 ovarian) was 34.6 µM and the TGI (OVCAR-8 ovarian) was > 80.3 µM. For the same compound, the GI50 (PC-3 prostate) was 36 µM, the TGI (PC-3 prostate) was > 58.4 µM and the GI50 (RPMI-8226 leukemia) was 23.8 µM. For the same compound, the TGI (RPMI-8226 leukemia) was 64.3 µM, the GI50 (RXF 393 renal) was 15.7 µM and the TGI (RXF 393 renal) was 30.2 µM. The GI50 (SF-268 CNS) was > 90.1 µM, the TGI (SF-268 CNS) was > 100 µM and the GI50 (SF-295 CNS) was > 100 µM. For the same compound, the TGI (SF-295 CNS) was > 100 µM, the GI50 (SF-539 CNS) was > 40.7 µM and the TGI (SF-539 CNS) was > 55.7 µM. It also gave a GI50 (SK-MEL-2 melanoma) of 20.6 µM, a TGI (SK-MEL-2 melanoma) of 46.5 µM and a GI50 (SK-MEL-28 melanoma) of 14.5 µM. For the same compound, the TGI (SK-MEL-28 melanoma) was 28.6 µM, the GI50 (SK-MEL-5 melanoma) was 43.7 µM and the TGI (SK-MEL-5 melanoma) was > 77.7 µM. For the same compound, the GI50 (SK-OV-3 ovarian) was > 51 µM, the TGI (SK-OV-3 ovarian) was > 80.9 µM and the GI50 (SN12C renal) was 16.1 µM. The TGI (SN12C renal) was 31.1 µM, the GI50 (SNB-19 CNS) was > 69 µM and the TGI (SNB-19 CNS) was > 100 µM. The GI50 (SNB-75 CNS) was 21.9 µM, the TGI (SNB-75 CNS) was > 94.2 µM and the GI50 (SR leukemia) was 18.4 µM. The TGI (SR leukemia) was 58.4 µM, the GI50 (SW-620 colon) was 18.1 µM and the TGI (SW-620 colon) was 37.9 µM. For the same compound, the GI50 (T-47D breast) was 9.55 µM, the TGI (T-47D breast) was 34.3 µM and the GI50 (TK-10 renal) was 16.8 µM. For the same compound, the TGI (TK-10 renal) was 31.1 µM, the GI50 (U251 CNS) was > 71 µM and the TGI (U251 CNS) was > 100 µM. The GI50 (UACC-257 melanoma) was 17.7 µM, the TGI (UACC-257 melanoma) was 34 µM and the GI50 (UACC-62 melanoma) was 23 µM. The TGI (UACC-62 melanoma) was > 56.1 µM, the GI50 (UO-31 renal) was 15.1 µM and the TGI (UO-31 renal) was 30 µM.
